The target of one assay is Carbonic anhydrase 2 (Homo sapiens, UniProt P00918). Briefly: DRUGMATRIX: Carbonic Anhydrase II enzyme inhibition (substrate: 4-Nitrophenyl acetate (4-NPA)). The format is tissue-based, Erythrocyte. The conditions noted are these: erythrocyte; Not Active = under 50% inhibition at 10 µM.
In a further assay the target is T1, D(4) dopamine receptor (Homo sapiens, UniProt P21917).
T1 sequence (P21917 whole entry): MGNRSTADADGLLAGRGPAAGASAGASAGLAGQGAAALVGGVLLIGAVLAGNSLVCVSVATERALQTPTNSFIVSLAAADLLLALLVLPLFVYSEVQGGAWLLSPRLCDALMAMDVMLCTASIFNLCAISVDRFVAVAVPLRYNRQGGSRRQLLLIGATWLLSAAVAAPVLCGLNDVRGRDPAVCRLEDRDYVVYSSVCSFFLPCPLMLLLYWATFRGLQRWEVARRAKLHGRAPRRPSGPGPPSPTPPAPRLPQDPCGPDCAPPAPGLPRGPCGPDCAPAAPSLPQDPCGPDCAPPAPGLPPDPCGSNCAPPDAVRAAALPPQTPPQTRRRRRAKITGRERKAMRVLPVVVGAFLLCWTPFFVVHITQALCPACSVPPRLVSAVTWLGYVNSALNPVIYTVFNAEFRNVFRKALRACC
Briefly: DRUGMATRIX: Dopamine D4.2 radioligand binding (ligand: [3H] Spiperone). The format is cell membranes, Membrane. To be noted: cho-k1; Not Active = under 50% inhibition at 10 µM.

Assay [1] can be described thus: DRUGMATRIX: Potassium Channel [KATP] radioligand binding (ligand: [3H] Glyburide). The format is cell membranes, Membrane. To be noted: hit-t15; Not Active = under 50% inhibition at 10 µM.
The nature of assay [2]: DRUGMATRIX: Calcium Channel Type L, Benzothiazepine radioligand binding (ligand: [3H] Diltiazem). The class given is cell membranes, Rattus norvegicus, Wistar, Brain, Membrane. To be noted: Not Active = under 50% inhibition at 10 µM.
For assay [3], the target named is Matrix metalloproteinase-9 (Homo sapiens, UniProt P14780). Briefly: biochemical. The class given is cell-based.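 Further: inhibition of isolated MMP-9 enzyme activity toward a synthetic peptide substrate, from the DrugMatrix protease screening panel; in other assays of this panel Not Active means under 50% inhibition at 10 µM.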
Sequence of Matrix metalloproteinase-9 (P14780 whole entry): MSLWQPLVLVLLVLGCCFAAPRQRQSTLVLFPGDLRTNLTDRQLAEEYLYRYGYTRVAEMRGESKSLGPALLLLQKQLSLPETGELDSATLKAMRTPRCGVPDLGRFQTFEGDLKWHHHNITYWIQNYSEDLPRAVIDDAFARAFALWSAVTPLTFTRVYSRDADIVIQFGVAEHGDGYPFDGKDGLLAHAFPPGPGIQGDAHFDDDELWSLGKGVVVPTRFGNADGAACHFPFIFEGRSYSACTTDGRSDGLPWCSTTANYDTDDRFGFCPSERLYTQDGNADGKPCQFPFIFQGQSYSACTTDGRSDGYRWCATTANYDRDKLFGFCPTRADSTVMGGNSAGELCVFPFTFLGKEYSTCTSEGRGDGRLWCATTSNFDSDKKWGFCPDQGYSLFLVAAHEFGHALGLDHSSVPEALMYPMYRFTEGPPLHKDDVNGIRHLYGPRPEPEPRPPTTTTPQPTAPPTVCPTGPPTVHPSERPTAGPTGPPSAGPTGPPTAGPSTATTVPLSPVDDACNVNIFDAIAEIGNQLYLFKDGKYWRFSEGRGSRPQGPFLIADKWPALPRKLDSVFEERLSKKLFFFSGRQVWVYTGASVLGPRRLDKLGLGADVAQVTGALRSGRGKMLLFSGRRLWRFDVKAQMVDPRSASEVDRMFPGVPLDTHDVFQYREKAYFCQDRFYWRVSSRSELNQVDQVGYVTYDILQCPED
Assay [4] concerns the target T2, Muscarinic acetylcholine receptor M2 (Homo sapiens, UniProt P08172). Further: in other assays of this panel Not Active means under 50% inhibition at 10 µM.
T2 sequence (P08172 whole entry): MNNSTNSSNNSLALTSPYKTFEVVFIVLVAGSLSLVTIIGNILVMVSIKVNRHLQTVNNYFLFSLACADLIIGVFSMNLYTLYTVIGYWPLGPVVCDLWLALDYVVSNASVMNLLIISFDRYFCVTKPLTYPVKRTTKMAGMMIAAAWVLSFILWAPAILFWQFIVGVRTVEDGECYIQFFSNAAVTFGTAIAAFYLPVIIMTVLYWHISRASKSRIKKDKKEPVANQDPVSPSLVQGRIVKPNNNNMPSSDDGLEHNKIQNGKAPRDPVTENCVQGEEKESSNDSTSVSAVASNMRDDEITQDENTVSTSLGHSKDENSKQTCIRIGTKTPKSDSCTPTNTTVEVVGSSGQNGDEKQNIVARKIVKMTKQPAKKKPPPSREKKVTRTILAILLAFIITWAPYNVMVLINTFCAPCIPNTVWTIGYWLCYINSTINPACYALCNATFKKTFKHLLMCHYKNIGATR
The class given is cell membranes, CHO-K1, Membrane. To be noted: cho-k1.

The IC50 is the point on the concentration scale where inhibition reaches its midpoint.

Consider `O=NN(CCCl)C(=O)NCCCl` [CARMUSTINE], for which the IC50 result (on Carbonic anhydrase 2; on D(4) dopamine receptor; in assay [1]; in assay [2]; in assay [3]; in assay [4]) was “Not Active” in each case. Further, the Ki entry in assay [1] and in assay [2] was “Not Active” in each case.
Consider `CC1=C(C(=O)O)N2C(=O)[C@@H](NC(=O)[C@H](N)c3ccccc3)[C@H]2SC1` [CEPHALEXIN ANHYDROUS], for which the IC50 result (against Carbonic anhydrase 2; at D(4) dopamine receptor; in assay [1]; in assay [2]; in assay [3]; in assay [4]) was “Not Active” each time. The Ki entry in assay [1] and in assay [2] was “Not Active” throughout.
For `O=C(N[C@H](CO)[C@H](O)c1ccc([N+](=O)[O-])cc1)C(Cl)Cl` [CHLORAMPHENICOL], the IC50 entry (against Carbonic anhydrase 2; at D(4) dopamine receptor; in assay [1]; in assay [2]; in assay [3]; in assay [4]) was “Not Active” throughout. Also, the Ki entry in assay [1] and in assay [2] was “Not Active” throughout.
Take `ClC(Cl)Cl` [CHLOROFORM]: the IC50 result (against Carbonic anhydrase 2; on D(4) dopamine receptor; in assay [1]; in assay [2]; in assay [3]; in assay [4]) was “Not Active” in each case. For the same compound, the Ki result in assay [1] and in assay [2] was “Not Active” throughout.
Take `C=C1CC[C@H](O)C/C1=C/C=C1\CCC[C@]2(C)[C@@H]([C@H](C)CCCC(C)C)CC[C@@H]12` [CHOLECALCIFEROL]: the IC50 result (against Carbonic anhydrase 2; on D(4) dopamine receptor; in assay [1]; in assay [2]; in assay [3]; in assay [4]) was “Not Active” in each case. Besides, the Ki entry in assay [1] and in assay [2] was “Not Active” in each case.
As to `C[N+](C)(C)CCO.[Cl-]` [CHOLINE CHLORIDE], the IC50 entry (at Carbonic anhydrase 2; on D(4) dopamine receptor; in assay [1]; in assay [2]; in assay [3]; in assay [4]) was “Not Active” throughout. Moreover, the Ki result in assay [1] and in assay [2] was “Not Active” each time.
For `CCOC(=O)C(C)(C)Oc1ccc(Cl)cc1` [CLOFIBRATE], the IC50 result (on Carbonic anhydrase 2; on D(4) dopamine receptor; in assay [1]; in assay [2]; in assay [3]; in assay [4]) was “Not Active” in each case. The Ki entry in assay [1] and in assay [2] was “Not Active” each time.
Regarding `CC(=O)OCC(=O)[C@@]1(O)CC[C@H]2[C@@H]3CCC4=CC(=O)CC[C@]4(C)[C@H]3C(=O)C[C@@]21C` [CORTISONE ACETATE], the IC50 entry (at Carbonic anhydrase 2; on D(4) dopamine receptor; in assay [1]; in assay [2]; in assay [3]; in assay [4]) was “Not Active” each time. Also, the Ki result in assay [1] and in assay [2] was “Not Active” in each case.
In the case of `O=c1ccc2ccccc2o1` [COUMARIN], the IC50 entry (against Carbonic anhydrase 2; on D(4) dopamine receptor; in assay [1]; in assay [2]; in assay [3]; in assay [4]) was “Not Active” in each case. For the same compound, the Ki entry in assay [1] and in assay [2] was “Not Active” in each case.
In the case of `C[C@@H]1C[C@@H]([C@H](O)CC2CC(=O)NC(=O)C2)C(=O)[C@@H](C)C1` [CYCLOHEXIMIDE], the IC50 result (against Carbonic anhydrase 2; at D(4) dopamine receptor; in assay [1]; in assay [2]; in assay [3]; in assay [4]) was “Not Active” in each case. Also, the Ki entry in assay [1] and in assay [2] was “Not Active” each time.
Consider `C/C=C/C[C@@H](C)[C@@H](O)[C@H]1C(=O)N[C@@H](CC)C(=O)N(C)CC(=O)N(C)[C@@H](CC(C)C)C(=O)N[C@@H](C(C)C)C(=O)N(C)[C@@H](CC(C)C)C(=O)N[C@@H](C)C(=O)N[C@H](C)C(=O)N(C)[C@@H](CC(C)C)C(=O)N(C)[C@@H](CC(C)C)C(=O)N(C)[C@@H](C(C)C)C(=O)N1C` [CYCLOSPORINE], for which the concentration for half-maximal inhibition (IC50) entry (on Carbonic anhydrase 2; at D(4) dopamine receptor; in assay [1]; in assay [2]; in assay [3]; in assay [4]) was “Not Active” each time. In addition, the Ki result in assay [1] and in assay [2] was “Not Active” each time.
Turning to `CN(C)/N=N/c1[nH]cnc1C(N)=O` [DACARBAZINE], the IC50 result is “Not Active” at Carbonic anhydrase 2; “Not Active” on D(4) dopamine receptor; “Not Active” in assay [1]; “Not Active” in assay [2]; 556 nM in assay [3] (read-out: IC50); “Not Active” in assay [4]. Besides, the Ki entry in assay [1] and in assay [2] was “Not Active” throughout.
Turning to `COc1ccc2c(c1)[C@]13CCCC[C@@H]1[C@H](C2)N(C)CC3` [DEXTROMETHORPHAN], the IC50 entry (on Carbonic anhydrase 2; at D(4) dopamine receptor; in assay [1]; in assay [2]; in assay [3]; in assay [4]) was “Not Active” in each case. Moreover, the Ki result in assay [1] and in assay [2] was “Not Active” throughout.
For `CC(=O)Nc1c(I)c(NC(C)=O)c(I)c(C(=O)O)c1I` [DIATRIZOIC ACID], the IC50 entry (on Carbonic anhydrase 2; at D(4) dopamine receptor; in assay [1]; in assay [2]; in assay [3]; in assay [4]) was “Not Active” throughout. Moreover, the Ki entry in assay [1] and in assay [2] was “Not Active” each time.
As to `COP(=O)(OC)OC=C(Cl)Cl` [DICHLORVOS], the IC50 result (at Carbonic anhydrase 2; at D(4) dopamine receptor; in assay [1]; in assay [2]; in assay [3]; in assay [4]) was “Not Active” in each case. Further, the Ki result in assay [1] and in assay [2] was “Not Active” throughout.
For `O=C(O)Cc1ccccc1Nc1c(Cl)cccc1Cl` [DICLOFENAC], the IC50 result (against Carbonic anhydrase 2; at D(4) dopamine receptor; in assay [1]; in assay [2]; in assay [3]; in assay [4]) was “Not Active” in each case. Further, the Ki result in assay [1] and in assay [2] was “Not Active” throughout.
With `C[C@H]1O[C@@H](O[C@H]2[C@@H](O)C[C@H](O[C@H]3[C@@H](O)C[C@H](O[C@H]4CC[C@@]5(C)[C@H](CC[C@@H]6[C@@H]5CC[C@]5(C)[C@@H](C7=CC(=O)OC7)CC[C@]65O)C4)O[C@@H]3C)O[C@@H]2C)C[C@H](O)[C@@H]1O` [DIGITOXIN], the IC50 entry (at Carbonic anhydrase 2; at D(4) dopamine receptor; in assay [1]; in assay [2]; in assay [3]; in assay [4]) was “Not Active” each time. Besides, the Ki result in assay [1] and in assay [2] was “Not Active” in each case.
Consider `CCN1CC(CCN2CCOCC2)C(c2ccccc2)(c2ccccc2)C1=O` (stereo not given) [DOXAPRAM], for which the Ki entry (at Carbonic anhydrase 2; in assay [1]; in assay [2]) was “Not Active” throughout. Also, the half-maximal inhibitory concentration (IC50) entry (on D(4) dopamine receptor; in assay [1]; in assay [2]; in assay [3]; in assay [4]) was “Not Active” each time.
Consider `Cn1c(=O)c2c(ncn2CC2OCCO2)n(C)c1=O` [DOXOFYLLINE], for which the concentration for half-maximal inhibition (IC50) result (against Carbonic anhydrase 2; at D(4) dopamine receptor; in assay [1]; in assay [2]; in assay [3]; in assay [4]) was “Not Active” in each case. Further, the Ki result in assay [1] and in assay [2] was “Not Active” each time.
Take `COc1cccc2c1C(=O)c1c(O)c3c(c(O)c1C2=O)C[C@@](O)(C(=O)CO)C[C@@H]3O[C@H]1C[C@H](N)[C@H](O)[C@H](C)O1` [DOXORUBICIN]: the IC50 entry (at Carbonic anhydrase 2; on D(4) dopamine receptor; in assay [1]; in assay [2]; in assay [3]; in assay [4]) was “Not Active” throughout. Besides, the Ki entry in assay [1] and in assay [2] was “Not Active” in each case.

The values above are taken from ChEMBL document CHEMBL1909046, “DrugMatrix in vitro pharmacology data”.
